Measured values: US11180767B2, “Protease deficient filamentous fungal cells and methods of use thereof” (GLYKOS FINLAND OY, priority 2012, dated 2021)

What was measured:
serine proteases = assay: IgG degradation by aminobenzamidine purified serine protease fraction F4 with and without PMSF; assay type: biochemical, Trichoderma reesei; conditions: PMSF 5 mM; pH 5.5, 37°C, 20 hours
Procedure: Serine proteases comprise a major family of proteases that have been identified as antibody degrading enzymes. Accordingly, serine proteases were purified from Trichoderma supernatant. The serine proteases were first affinity purified from fermentation culture supernatants with a p-aminobenzamidine sepharose 4 fast flow resin (GE healthcare #17-5123-10). 15 ml of the fermentation culture supernatant was batch bound to the resin in 35 ml of binding buffer (0.05 M Tris-HCL, 0.5 M NaCl, pH 7.4). After packing and washing the column with the same binding buffer, the column was eluted with 0.05 M glycine, pH 3.0. The fractions were then neutralized with 1M Tris HCL, pH 8.8.
In total 1.7 mg of protein was purified from the affinity column. When the peak fractions were run on a 4-15% SDS-PAGE gel, several major bands (˜110 kD, 53 kD, 39 kD, 29 kD) and many more minor bands were seen. The peak fraction protein mixture (F4) was then tested for protease activity by incubated a sample of the F4 with human IgG1 in sodium citrate buffer (50 mM, pH 5.5) at 37° C. for 20 hours. The samples were incubated both in the presence and absence of the serine protease inhibitor PMSF (5 mM). The incubated samples were then analyzed by immunoblotting with an anti-IgG heavy chain AP conjugate antibody (Sigma #A3188) and an anti-IgG light chain AP conjugate antibody (Sigma #A3812) diluted 1:30,000 in TBST.

[1] = system: SIP purified proteases (PEP2, PEP3, PEP4, PEP5, GAP1, SLP2); assay: Protease activity of SIP purified fractions against casein with inhibitors (EnzChek); assay type: biochemical, Trichoderma reesei; conditions: pH 5.5; for proteases inhibited: SIP, LIP, pepstatin A 60 μM, SBTI 200 μg/ml
Procedure: Protease activity was then tested against casein both in the presence and absence of protease inhibitors. Protease activity against casein was tested using the EnzChek protease assay kit (Molecular probes #E6638, green fluorescent casein substrate). The working stock solution was prepared by diluting the stock to 10 μg ml in 50 mM sodium citrate, pH 5.5. The purified protease fractions (10 μl) were diluted with […] of sodium citrate, pH 5.5. 100 μl of the diluted substrate was combined with the diluted protease fractions in a 96 well sample plate. The plate was then covered and kept at 37° C. for one to three hours. Fluorescence readings were taken at one, two, and three hours with a Varioskan fluorescent plate reader (Thermo Scientific) using 485 nm excitation and 530 nm emission.
The SIP inhibitor peptide, pepstatin A, LIP peptide, SBTI, and chymostatin were used as inhibitors. […] SIP, LIP, and pepstatin A were used at a concentration of 60 μM, and SBTI was used at a concentration of 200 μg/ml.

[2] = system: tryptic and chymotryptic proteases; assay: In vitro inhibitor treatment: rituximab heavy chain degradation in M44 supernatant; assay type: biochemical, Trichoderma reesei; conditions: 100 μM chymostatin or 1 mg/ml SBTI; M44 supernatant 6 mg/ml, pH 5.5
Procedure: Based on the knowledge that the heavy chain is cleaved by tryptic and chymotryptic proteases, inhibitors of these two enzyme classes were tested against antibody degradation both in vitro and in culture experiments utilizing an antibody producing T. reesei strain. The inhibitors soybean trypsin inhibitor (SBTI) and chymostatin were tested, as they have been previously shown in in vitro experiments to stabilize antibody heavy chains.
Chymostatin and SBTI were analyzed in vitro with culture supernatant. Supernatant from a fed batch fermentor culture was diluted to 6 mg/ml with sodium citrate buffer pH 5.5 (pH 5.5; 28° C.; 20 g/L spent grain extract, 60 g/L lactose). […] The strain was grown in Trichoderma minimal medium supplemented with 20 g/l spent grain extract and 60 g/l lactose at pH 5.5 and 28° C.
To this diluted supernatant 0.05 μg μl of rituximab, 100 μM chymostatin, 1 mg/ml SBTI, or a combination of both inhibitors was added in a total volume of 50 μl and sampled at 0, 1, and 19 hours to assess the early and late degradation of the rituximab antibody heavy chain. The resulting heavy chain products were analyzed by immunoblot using and anti-heavy chain AP conjugated antibody (Sigma #A3188) diluted 1:30,000 in TBST (FIG. 35). […] Additional fragments were generated after 19 hours, the two major products remained.

[3] = system: rituximab antibody producing strain; assay: Treatment of T. reesei rituximab cultures with inhibitors; assay type: cell-based, Trichoderma reesei
Procedure: The effectiveness of the inhibitors was also tested with the rituximab antibody producing strain, which contains a VALEKR linker sequence and the pep1 deletion. This strain was grown in triplicate, in small flasks both in presence or absence of chymostatin, SBTI, or pepstatin A. The small shake flasks contained 50 ml of TrMM plus lactose (40 g/l), spent grain extract (20 g/l), and buffer with 100 mM PIPPS at pH 5.5. The SBTI inhibitor was added to the culture at final concentrations of either 100 μg/ml or 500 μg/ml. Chymostatin was used at 100 μM, and pepstatin A was used at 10 μM. Each of the three inhibitors was added to the cultures daily on day 2, 3, 4, and 5.
Growth of the cultures was followed daily by pH from day 2 until day 7. […] In the PIPPS buffered cultures, the pH decreased from an initial pH of 5.5 down to a pH of 4.8 after day 6. With chymostatin and pepstatin A the cultures were monitored up to day 7. On day 7 the average pH for the control bottles was 4.6, while the average pH for chymostatin treated cultures was 4.9, and the average pH of pepstatin A treated cultures was 5.0.
Culture supernatant samples (30 μl) were also collected on days 3, 4, and 5 for analysis of antibody production. The analysis was performed by immunoblots using an anti-IgG heavy chain antibody AP conjugate (Sigma #A3188) and an anti-light chain antibody AP conjugate (Sigma #A3812). Each antibody was diluted 1:30,000 in TBST. The full length rituximab heavy chain is about 51 kD, the rituximab light chain CHBI fusion is about 100 kD, and the free rituximab light chain is about 28 kD.

[4] = system: M369 human growth hormone strain; assay: hGH production in 24 well cultures with inhibitors and supplements; assay type: cell-based, Trichoderma reesei; conditions: 24 well culture, pH 4.5, day 4 immunoblot
Procedure: To evaluate what inhibitors would best stabilize production of hGH, 24 well cultures of these strains were performed. The M369 human growth hormone strain (Δpep1Δtsp1Δslp1Δgap1Δgap2) was grown along with single components or with combinations of the following: trypsin and subtilisin inhibitor SBTI, the acidic protease inhibitor peptide SIP, the acidic protease inhibitor peptide LIP, the aspartic protease inhibitor pepstatin A free peptide, pepstatin A immobilized to agarose beads, the trypsin and subtilisin inhibitor BBI from lima bean, the […] chymostatin, and BSA. Three independent wells were chosen for control wells where no inhibitors or supplements were added. These two strains were grown in 3 ml of TrMM with diammonium citrate without ammonium sulfate, 100 mM PIPPS, 20 g/L spent grain extract, 40 g/L lactose adjusted to pH 4.5. The 24 well plates were shaken at 800 rpm, 85% humidity, and 28° C. The cultures were grown for 6 days and covered with an air permeable membrane.
Inhibitors were added first on day 1 and then daily beginning on day 3. 100 μl samples were taken from the culture wells beginning on day 3. The mycelium was spun down for 5 minutes at 13 k and the supernatant collected. From the culture supernatant 12 μl was loaded in a 4-20% SDS PAGE gel and immunoblotting made on nitrocellulose with mouse anti-hGH antibody (2 μg/ml) and goat anti-mouse IgG AP conjugated secondary antibody diluted 1:10,000 in TBST.
Estimating the expression levels relative to the 200 ng control sample, the control wells produced between 3-6 mg/L of hGH, the BSA (0.25%)/SIP (50 μM)/8BTI (0.2 mg/ml) treatment produced 24.5 mg/L, the SIP (50 μM)/8BTI (0.2 mg/ml) treatment produced 26.6 mg/L, and the pepstatin A beads/SBTI (0.2 mg/ml) addition yielded 24.5 mg/L of hGH. Therefore, using a combination of inhibitors and additives worked best increasing the production levels by at least 4-fold. The critical parameter was to include an aspartic protease inhibitor into the mix.

[5] = system: aspartic and glutamic protease; assay: MAB01 heavy chain degradation by SIP purified proteases with and without SIP inhibitor peptide; assay type: biochemical, Trichoderma reesei; conditions: overnight 37°C, pH 4.0 and pH 5.5
Procedure: Several additional aspartic proteases were isolated from the T. reesei M277 triple protease deletion strain (pep1, tsp1, slp1). […] The M277 deletion strain was generated as described in Example 4 below. The strain was grown in Trichoderma minimal medium supplemented with 20 g/l spent grain extract, 60 g/l lactose, and 9 g/l casamino acids at pH 5.5 and 28° C. The aspartic proteases were isolated by affinity purification using the SIP peptide (Ac-Phe-Lys-Phe-(AHPPA)-Leu-Arg-NH2) (Kataoka Y. et al. 2005 FEBS Letters 579, pp 2991-2994). The SIP peptide was conjugated to NHS activated agarose resin (Pierce #26196) using the protocol provided by the manufacturer. The SIP affinity resin was used to purify proteases. Fermentation supernatant (15 ml) from the T. reesei M277 strain was then used to batch bind proteases to the resin in 35 ml buffer containing 50 mM sodium acetate, 0.2 M NaCl, pH 3.0 (from fermentation conditions pH 5.5; 28° C.; 9 g/l casaminoacids; 20 g/L spent grain extract, 60 g/L lactose). The column was washed with the same binding buffer and bound protein removed with elution buffer (50 mM Tris-HCL, 1 M NaCl, pH 8.5). […]
The SIP purified proteases were then tested for their ability to degrade the MAB01 antibody heavy chain. […] The collected samples were analyzed by immunoblotting with an anti-IgG heavy chain antibody AP conjugate (Sigma A3188) diluted 1:30,000 in TBST. […]

[6] = system: proteases in supernatant from the 6-fold protease deletion strain M400; assay: Protease stability of proteins spiked into supernatant of the 6-fold protease deletion strain; assay type: biochemical, Trichoderma reesei; conditions: M400 supernatant pH 4.2, 20 hours, 37°C, 0.05 μg/μl
Procedure: The protease stability of the model proteins IGF1, hGH, and IFNα2b were analyzed by spiking them into supernatant from the 6-fold protease deletion strain (Δpep1Δtsp1Δslp1Δgap1Δgap2Δpep4) M400. The supernatant was collected from a large shake flask culture CAH15. The undiluted supernatant from the shake flask cultivation CAH15 was incubated with the purified model proteins with and without pepstatin A (50 μM) and SBTI (0.2 mg/ml) inhibitors for 20 hours at 37° C. The 5 day culture supernatant pH was around 4.2. The reaction containing 0.05 μg μl of model protein was sampled after 20 hours. 50 mM sodium citrate pH 4.0 spiked with model proteins (0.05 g 1) was used as a buffer control.
From each reaction 10 μl was loaded into an 18% SDS PAGE gel and run for 30 minutes at 200 V. The proteins in the gel were then transferred to nitrocellulose for immunoblotting. The nitrocellulose membrane was blocked for 1 hour at room temperature with 5% milk in TBST buffer. The individual blots were probed with their specific primary antibody to detect the appropriate model protein for 1 hour at room temperature on a shaker. The mouse anti-IGF1 antibody (R&D systems #mab291) was used at 2 μg/ml diluted in TBST. The mouse anti-rhGH antibody (Abeam #ab51232) was used at 2 μg/ml diluted in TBST. The mouse anti-IFNα2b antibody (Abeam #ab9386) was used at 1 μg/ml diluted in TBST. After briefly washing the blot membranes with TBST, the secondary antibody was added for 1 hour at room temperature shaking. The secondary goat anti-mouse AP conjugated antibody (Biorad #170-6520) was diluted 1:10,000 in TBST.
This same spiking experiment as was done with MAB01 to investigate its stability in the 6 protease deletion supernatant with and without inhibitors (FIG. 43). Samples were taken as described above and immunoblotted with an anti-heavy chain AP conjugated antibody (Sigma #A3188). […] There was no obvious benefit having used inhibitors. The antibody was stable in this pH 4.2 supernatant. […]

[7] = third chymostatin culture sample, 100 μM

Compound: O=S(=O)(F)Cc1ccccc1 [PMSF]
- IgG degradation by F4 serine protease fraction (serine proteases): able to inhibit most of the degradation

Compound: CC(C)C[C@H](NC(=O)[C@@H](NC(=O)N[C@@H](Cc1ccccc1)C(=O)O)[C@@H]1CCN=C(N)N1)C(=O)N[C@H](C=O)Cc1ccccc1 [chymostatin]
- proteases inhibited [1]: inhibited SLP2
- inhibition of SIP purified protease activity against casein ([1]; FIG. 11): able to inhibit the SLP2 protease
- rituximab heavy chain fragment formation [2]: inhibited the initial production of the 42 kDa fragment
- rituximab heavy chain production vs untreated cultures ([3]; day 5, SBTI 100 or 500 μg/ml, chymostatin 100 μM): increased the amount of full length rituximab heavy chain produced
- effect on culture growth (followed by pH) ([3]; small shake flasks, inhibitors added daily day 2-5): small reduction in growth
- full length rituximab heavy chain [3, 7]: approximately 90%
- heavy chain fragment [3, 7]: ~10%
- effect on hGH production [4]: improved the amount of full length product observed

Compound: Ac-Phe-Lys-Phe-(AHPPA)-Leu-Arg-NH2 (FKFXLR; HELM PEPTIDE1{[ac].F.K.F.[O=C(C[C@H](O)[C@H](Cc1ccccc1)N[*:1])[*:2]].L.R.[am]}$$$$V2.0; SMILES CC(=O)N[C@@H](Cc1ccccc1)C(=O)N[C@@H](CCCCN)C(=O)N[C@@H](Cc1ccccc1)C(=O)N[C@@H](Cc1ccccc1)[C@@H](O)CC(=O)N[C@@H](CC(C)C)C(=O)N[C@@H](CCCNC(=N)N)C(N)=O) [SIP peptide]
- aspartic and glutamic protease activities against MAB01 heavy chain [5]: inhibited
- proteases inhibited [1]: inhibited both aspartic and glutamic proteases
- effect on hGH production [4]: noticeable increase in hGH amount

Compound: IGF1: insulin-like growth factor 1, model protein
- stability of model protein in supernatant without inhibitors [6]: the majority appeared to be degraded

Compound: hGH: human growth hormone, model protein
- stability of model protein in supernatant without inhibitors [6]: the majority appeared to be degraded
